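48-hour exposure; five concentrations; linearly interpolated endpoints. Here, GI50 denotes the concentration required for 50% inhibition of growth. TGI denotes the concentration required for complete inhibition of growth.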
Key:
Experiment in all cases: NCI tumour cell line growth inhibition, 48 h
NCI/ADR-RES ovarian = tested on: NCI/ADR-RES ovarian
MDA-MB-231 breast = tested on: MDA-MB-231 breast
SF-268 CNS = tested on: SF-268 CNS
A498 renal = tested on: A498 renal
HCT-15 colon = tested on: HCT-15 colon
HL-60(TB) leukemia = tested on: HL-60(TB) leukemia
MCF7 breast = tested on: MCF7 breast
CCRF-CEM leukemia = tested on: CCRF-CEM leukemia
RPMI-8226 leukemia = tested on: RPMI-8226 leukemia
SN12C renal = tested on: SN12C renal
HCT-116 colon = tested on: HCT-116 colon
SK-MEL-28 melanoma = tested on: SK-MEL-28 melanoma
MDA-MB-435 = tested on: MDA-MB-435
PC-3 prostate = tested on: PC-3 prostate
RXF 393 renal = tested on: RXF 393 renal
NCI-H23 lung = tested on: NCI-H23 lung
NCI-H226 lung = tested on: NCI-H226 lung
LOX IMVI melanoma = tested on: LOX IMVI melanoma
BT-549 breast = tested on: BT-549 breast
KM12 colon = tested on: KM12 colon
EKVX NSCLC = tested on: EKVX NSCLC
A549 NSCLC = tested on: A549 NSCLC
SK-MEL-2 melanoma = tested on: SK-MEL-2 melanoma
HS 578T breast = tested on: HS 578T breast
T-47D breast = tested on: T-47D breast
DU-145 prostate = tested on: DU-145 prostate

O=[N+]([O-])c1cc([N+](=O)[O-])c(Cl)cc1Cl
GI50 (NCI/ADR-RES ovarian): 1320 nM | TGI (NCI/ADR-RES ovarian): 2940 nM | GI50 (MDA-MB-231 breast): 1940 nM | TGI (MDA-MB-231 breast): 3700 nM | GI50 (SF-268 CNS): 1640 nM | TGI (SF-268 CNS): 3130 nM | GI50 (A498 renal): 1610 nM | TGI (A498 renal): 4510 nM | GI50 (HCT-15 colon): 1350 nM | TGI (HCT-15 colon): 3730 nM | GI50 (HL-60(TB) leukemia): 456 nM | TGI (HL-60(TB) leukemia): 2700 nM | GI50 (MCF7 breast): 1670 nM | TGI (MCF7 breast): 4230 nM | GI50 (CCRF-CEM leukemia): 217 nM | TGI (CCRF-CEM leukemia): 505 nM | GI50 (RPMI-8226 leukemia): 667 nM | TGI (RPMI-8226 leukemia): 2800 nM | GI50 (SN12C renal): 1760 nM | TGI (SN12C renal): 3550 nM | GI50 (HCT-116 colon): 661 nM | TGI (HCT-116 colon): 2170 nM | GI50 (SK-MEL-28 melanoma): 1740 nM | TGI (SK-MEL-28 melanoma): 3240 nM | GI50 (MDA-MB-435): 1610 nM | TGI (MDA-MB-435): 3220 nM | GI50 (PC-3 prostate): 1350 nM | TGI (PC-3 prostate): 2880 nM | GI50 (RXF 393 renal): 1680 nM | TGI (RXF 393 renal): 3090 nM | GI50 (NCI-H23 lung): 1400 nM | TGI (NCI-H23 lung): 3000 nM | GI50 (NCI-H226 lung): 2220 nM | TGI (NCI-H226 lung): 5780 nM | GI50 (LOX IMVI melanoma): 361 nM | TGI (LOX IMVI melanoma): 1460 nM | GI50 (BT-549 breast): 1690 nM | TGI (BT-549 breast): 3100 nM | GI50 (KM12 colon): 1640 nM | TGI (KM12 colon): 3050 nM | GI50 (EKVX NSCLC): 1680 nM | TGI (EKVX NSCLC): 3310 nM | GI50 (A549 NSCLC): 1640 nM | TGI (A549 NSCLC): 3270 nM | GI50 (SK-MEL-2 melanoma): 1830 nM | TGI (SK-MEL-2 melanoma): 3440 nM | GI50 (HS 578T breast): 2380 nM | TGI (HS 578T breast): 7560 nM | GI50 (T-47D breast): 1710 nM | TGI (T-47D breast): 4420 nM | GI50 (DU-145 prostate): 1560 nM | TGI (DU-145 prostate): 2900 nM

Source: PubChem BioAssay (NCI)
